Data as given in the NIST ThermoML archive (doi:10.1016/j.jct.2019.04.018).
Numbers after ± are expanded uncertainties.

Experiment: xn = mol fraction of the nth substance listed
Conditions: 100 kPa, Liquid; for viscosity: Capillary tube (Ostwald / Ubbelohde) method; for speed of sound: Frequency=2 MHz, Single path-length method; for mass density: Vibrating tube method

C=COCCCC [1-(ethenyloxy)butane] + C=COC(C)=O
Conditions | mass density, 303.15 K [kg/m3] | mass density, 308.15 K [kg/m3] | mass density, 313.15 K [kg/m3] | speed of sound, 303.15 K [m/s] | speed of sound, 308.15 K [m/s] | speed of sound, 313.15 K [m/s] | viscosity, 303.15 K [mPa·s] | viscosity, 308.15 K [mPa·s] | viscosity, 313.15 K [mPa·s]
x2 = 0 | 769 ± 1.2 | 763.9 ± 1.2 | 758.8 ± 1.2 | 1086 ± 6 | 1076 ± 6 | 1066 ± 6 | 0.386 ± 0.015 | 0.373 ± 0.015 | 0.352 ± 0.015
x2 = 0.1022 | 779.6 ± 1.2 | 774.4 ± 1.2 | 769.1 ± 1.2 | 1086 ± 6 | 1076 ± 6 | 1066 ± 6 | 0.385 ± 0.015 | 0.368 ± 0.014 | 0.35 ± 0.014
x2 = 0.2014 | 790.7 ± 1.1 | 785.4 ± 1.1 | 780 ± 1.1 | 1086 ± 6 | 1076 ± 6 | 1065 ± 6 | 0.381 ± 0.014 | 0.364 ± 0.014 | 0.344 ± 0.014
x2 = 0.2948 | 801.9 ± 1.1 | 796.5 ± 1.1 | 791 ± 1.1 | 1087 ± 6 | 1075 ± 6 | 1064 ± 6 | 0.377 ± 0.014 | 0.36 ± 0.014 | 0.339 ± 0.014
x2 = 0.4002 | 815.6 ± 1.1 | 810 ± 1.1 | 804.4 ± 1.1 | 1087 ± 6 | 1075 ± 6 | 1064 ± 6 | 0.374 ± 0.014 | 0.357 ± 0.014 | 0.338 ± 0.014
x2 = 0.502 | 829.9 ± 1.1 | 824.1 ± 1.1 | 818.3 ± 1.1 | 1087 ± 5 | 1074 ± 5 | 1062 ± 5 | 0.372 ± 0.014 | 0.355 ± 0.014 | 0.336 ± 0.014
x2 = 0.5997 | 844.6 ± 1.1 | 838.7 ± 1.1 | 832.8 ± 1.1 | 1088 ± 5 | 1074 ± 5 | 1062 ± 5 | 0.373 ± 0.014 | 0.357 ± 0.014 | 0.337 ± 0.014
x2 = 0.6979 | 860.6 ± 1.1 | 854.5 ± 1.1 | 848.4 ± 1.1 | 1088 ± 5 | 1074 ± 5 | 1061 ± 5 | 0.375 ± 0.014 | 0.358 ± 0.014 | 0.338 ± 0.014
x2 = 0.7949 | 877.7 ± 1.1 | 871.6 ± 1.1 | 865.3 ± 1.1 | 1089 ± 5 | 1074 ± 5 | 1059 ± 5 | 0.378 ± 0.014 | 0.36 ± 0.014 | 0.341 ± 0.014
x2 = 0.8999 | 898 ± 1.1 | 891.9 ± 1.1 | 885.5 ± 1.1 | 1090 ± 5 | 1074 ± 5 | 1057 ± 5 | 0.383 ± 0.014 | 0.365 ± 0.014 | 0.346 ± 0.014

C=COC(C)=O [vinyl acetate] + CC(C)OC(C)C
Conditions | mass density, 303.15 K [kg/m3] | mass density, 308.15 K [kg/m3] | mass density, 313.15 K [kg/m3] | speed of sound, 303.15 K [m/s] | speed of sound, 308.15 K [m/s] | speed of sound, 313.15 K [m/s] | viscosity, 303.15 K [mPa·s] | viscosity, 308.15 K [mPa·s] | viscosity, 313.15 K [mPa·s]
x1 = 0.1031 | 727.4 ± 1.2 | 722.1 ± 1.2 | 716.5 ± 1.2 | 990 ± 6 | 970 ± 6 | 948 ± 6 | 0.308 ± 0.014 | 0.293 ± 0.014 | 0.28 ± 0.014
x1 = 0.1977 | 741.4 ± 1.1 | 736 ± 1.1 | 730.4 ± 1.1 | 996 ± 6 | 976 ± 6 | 955 ± 6 | 0.313 ± 0.014 | 0.297 ± 0.014 | 0.284 ± 0.014
x1 = 0.3004 | 757.8 ± 1.1 | 752.3 ± 1.1 | 746.6 ± 1.1 | 1004 ± 6 | 985 ± 6 | 964 ± 6 | 0.318 ± 0.014 | 0.302 ± 0.014 | 0.288 ± 0.014
x1 = 0.4002 | 775 ± 1.1 | 769.4 ± 1.1 | 763.7 ± 1.1 | 1013 ± 6 | 993 ± 6 | 972 ± 6 | 0.324 ± 0.014 | 0.307 ± 0.014 | 0.294 ± 0.014
x1 = 0.5001 | 793.8 ± 1.1 | 788.1 ± 1.1 | 782.3 ± 1.1 | 1022 ± 5 | 1002 ± 5 | 982 ± 5 | 0.33 ± 0.014 | 0.313 ± 0.014 | 0.299 ± 0.014
x1 = 0.6027 | 814.8 ± 1.1 | 809.1 ± 1.1 | 803.2 ± 1.1 | 1032 ± 5 | 1012 ± 5 | 992 ± 5 | 0.338 ± 0.014 | 0.32 ± 0.014 | 0.306 ± 0.014
x1 = 0.7001 | 836.9 ± 1.1 | 831 ± 1.1 | 825 ± 1.1 | 1042 ± 5 | 1024 ± 5 | 1003 ± 5 | 0.347 ± 0.014 | 0.329 ± 0.014 | 0.313 ± 0.014
x1 = 0.801 | 861.9 ± 1.1 | 856 ± 1.1 | 849.8 ± 1.1 | 1056 ± 5 | 1038 ± 5 | 1016 ± 5 | 0.359 ± 0.014 | 0.34 ± 0.014 | 0.323 ± 0.014
x1 = 0.9014 | 889.5 ± 1.1 | 883.5 ± 1.1 | 877.2 ± 1.1 | 1072 ± 5 | 1053 ± 5 | 1032 ± 5 | 0.372 ± 0.014 | 0.353 ± 0.014 | 0.335 ± 0.014
x1 = 1 | 919.4 ± 1.1 | 913.5 ± 1.1 | 907.3 ± 1.1 | 1092 ± 5 | 1074 ± 5 | 1054 ± 5 | 0.388 ± 0.014 | 0.37 ± 0.014 | 0.352 ± 0.014

C=COC(C)=O [vinyl acetate] + CCCCOCCCC
Conditions | mass density, 303.15 K [kg/m3] | mass density, 308.15 K [kg/m3] | mass density, 313.15 K [kg/m3] | speed of sound, 303.15 K [m/s] | speed of sound, 308.15 K [m/s] | speed of sound, 313.15 K [m/s] | viscosity, 303.15 K [mPa·s] | viscosity, 308.15 K [mPa·s] | viscosity, 313.15 K [mPa·s]
x1 = 0.0956 | 767.4 ± 1.1 | 763 ± 1.1 | 758.2 ± 1.1 | 1141 ± 5 | 1123 ± 5 | 1107 ± 5 | 0.575 ± 0.015 | 0.54 ± 0.014 | 0.509 ± 0.014
x1 = 0.1922 | 776.2 ± 1.1 | 771.6 ± 1.1 | 767 ± 1.1 | 1136 ± 5 | 1118 ± 5 | 1100 ± 5 | 0.549 ± 0.014 | 0.517 ± 0.014 | 0.489 ± 0.014
x1 = 0.3008 | 787.4 ± 1.1 | 782.6 ± 1.1 | 777.8 ± 1.1 | 1131 ± 5 | 1112 ± 5 | 1093 ± 5 | 0.522 ± 0.014 | 0.493 ± 0.014 | 0.467 ± 0.014
x1 = 0.3962 | 798.4 ± 1.1 | 793.5 ± 1.1 | 788.5 ± 1.1 | 1126 ± 5 | 1107 ± 5 | 1087 ± 5 | 0.499 ± 0.014 | 0.472 ± 0.014 | 0.447 ± 0.014
x1 = 0.5008 | 812.2 ± 1.1 | 807.1 ± 1.1 | 801.9 ± 1.1 | 1120 ± 5 | 1102 ± 5 | 1080 ± 5 | 0.476 ± 0.014 | 0.451 ± 0.014 | 0.427 ± 0.014
x1 = 0.5997 | 827.4 ± 1.1 | 822 ± 1.1 | 816.6 ± 1.1 | 1115 ± 5 | 1096 ± 5 | 1074 ± 5 | 0.455 ± 0.014 | 0.431 ± 0.014 | 0.409 ± 0.014
x1 = 0.6995 | 845 ± 1.1 | 839.4 ± 1.1 | 833.7 ± 1.1 | 1110 ± 5 | 1091 ± 5 | 1068 ± 5 | 0.436 ± 0.014 | 0.414 ± 0.014 | 0.393 ± 0.014
x1 = 0.7995 | 865.6 ± 1.1 | 859.8 ± 1.1 | 853.8 ± 1.1 | 1104 ± 5 | 1085 ± 5 | 1063 ± 5 | 0.417 ± 0.014 | 0.398 ± 0.014 | 0.379 ± 0.014
x1 = 0.8998 | 890 ± 1.1 | 883.8 ± 1.1 | 877.6 ± 1.1 | 1099 ± 5 | 1080 ± 5 | 1058 ± 5 | 0.401 ± 0.014 | 0.383 ± 0.014 | 0.365 ± 0.014
x1 = 1 | 919.4 ± 1.1 | 913.5 ± 1.1 | 907.3 ± 1.1 | 1092 ± 5 | 1074 ± 5 | 1054 ± 5 | 0.388 ± 0.014 | 0.37 ± 0.014 | 0.352 ± 0.014

C=COC(C)=O [vinyl acetate] + COc1ccccc1
Conditions | mass density, 303.15 K [kg/m3] | mass density, 308.15 K [kg/m3] | mass density, 313.15 K [kg/m3] | speed of sound, 303.15 K [m/s] | speed of sound, 308.15 K [m/s] | speed of sound, 313.15 K [m/s] | viscosity, 303.15 K [mPa·s] | viscosity, 308.15 K [mPa·s] | viscosity, 313.15 K [mPa·s]
x1 = 0.0981 | 979.4 ± 1.1 | 974.6 ± 1.1 | 969.5 ± 1.1 | 1350 ± 5 | 1329 ± 5 | 1310 ± 5 | 0.843 ± 0.015 | 0.775 ± 0.015 | 0.724 ± 0.015
x1 = 0.199 | 974 ± 1.1 | 969 ± 1.1 | 963.8 ± 1.1 | 1316 ± 5 | 1294 ± 5 | 1274 ± 5 | 0.766 ± 0.015 | 0.708 ± 0.015 | 0.664 ± 0.015
x1 = 0.3015 | 968.3 ± 1.1 | 963.1 ± 1.1 | 957.8 ± 1.1 | 1283 ± 5 | 1260 ± 5 | 1239 ± 5 | 0.696 ± 0.015 | 0.647 ± 0.015 | 0.609 ± 0.015
x1 = 0.3972 | 962.6 ± 1.1 | 957.4 ± 1.1 | 951.9 ± 1.1 | 1253 ± 5 | 1230 ± 5 | 1208 ± 5 | 0.638 ± 0.015 | 0.595 ± 0.015 | 0.562 ± 0.014
x1 = 0.5005 | 956.2 ± 1.1 | 950.8 ± 1.1 | 945.2 ± 1.1 | 1223 ± 5 | 1199 ± 5 | 1177 ± 5 | 0.583 ± 0.015 | 0.546 ± 0.014 | 0.515 ± 0.014
x1 = 0.5979 | 949.8 ± 1.1 | 944.2 ± 1.1 | 938.5 ± 1.1 | 1194 ± 5 | 1171 ± 5 | 1150 ± 5 | 0.535 ± 0.014 | 0.503 ± 0.014 | 0.476 ± 0.014
x1 = 0.6988 | 942.8 ± 1.1 | 937 ± 1.1 | 931.1 ± 1.1 | 1167 ± 5 | 1144 ± 5 | 1122 ± 5 | 0.492 ± 0.014 | 0.464 ± 0.014 | 0.439 ± 0.014
x1 = 0.8029 | 935.1 ± 1.1 | 929.2 ± 1.1 | 923.1 ± 1.1 | 1139 ± 5 | 1118 ± 5 | 1096 ± 5 | 0.451 ± 0.014 | 0.427 ± 0.014 | 0.406 ± 0.014
x1 = 0.9005 | 927.5 ± 1.1 | 921.5 ± 1.1 | 915.3 ± 1.1 | 1115 ± 5 | 1095 ± 5 | 1074 ± 5 | 0.418 ± 0.014 | 0.397 ± 0.014 | 0.377 ± 0.014
x1 = 1 | 919.4 ± 1.1 | 913.5 ± 1.1 | 907.3 ± 1.1 | 1092 ± 5 | 1074 ± 5 | 1054 ± 5 | 0.388 ± 0.014 | 0.37 ± 0.014 | 0.352 ± 0.014
